Experimental data as given in US20250092022A1, “MUSCARINIC RECEPTOR 4 ANTAGONISTS AND METHODS OF USE” (Neurocrine Biosciences, Inc., priority 2021, published 2025).

Target: human M4 receptor (Homo sapiens (Human), UniProt P08173)
Assay: Binding assay: inhibition of radioligand (tritiated N-methylscopolamine) binding to membranes from CHO cells expressing human M4 receptor
Conditions: CHO cell membranes, 1.5 nM tritiated N-methylscopolamine
Description: Binding affinity (Ki) for the compounds was measured by inhibition of radioligand binding to membranes from CHO cells expressing human M4 receptor. Membranes were prepared by nitrogen cavitation and differential centrifugation as previously described (Hoare et al., Mol. Pharmacol. 2003 March; 63(3): 751-65). The radioligand employed was tritiated N-methylscopolamine, used at a concentration of 1.5 nM. A dose-response of twelve concentrations of compound was used, ranging from […]. The assay buffer was 50 mM HEPES, 100 mM NaCl, 5 mM MgCl2, 1 mM ethylenediaminetetraacetic acid, pH-adjusted to pH 7.4. Membranes, radioligand and compound were incubated together for 90 minutes at 37° C., in a total volume of 150 μL in a 96-well plate. Receptor-bound radioligand was then collected by harvesting the assay over glass fiber filters pretreated with polyethylenimine to trap the cell membranes, using rapid vacuum filtration. Harvesting and radioactivity counting was conducted as previously described (see, e.g., Hoare et al., Mol. Pharmacol. 2003 63(3):751-65); Erratum at Mol. Pharmacol. 2005 July; 68(1): 260).

human M4 receptor, sequence (P08173 whole entry): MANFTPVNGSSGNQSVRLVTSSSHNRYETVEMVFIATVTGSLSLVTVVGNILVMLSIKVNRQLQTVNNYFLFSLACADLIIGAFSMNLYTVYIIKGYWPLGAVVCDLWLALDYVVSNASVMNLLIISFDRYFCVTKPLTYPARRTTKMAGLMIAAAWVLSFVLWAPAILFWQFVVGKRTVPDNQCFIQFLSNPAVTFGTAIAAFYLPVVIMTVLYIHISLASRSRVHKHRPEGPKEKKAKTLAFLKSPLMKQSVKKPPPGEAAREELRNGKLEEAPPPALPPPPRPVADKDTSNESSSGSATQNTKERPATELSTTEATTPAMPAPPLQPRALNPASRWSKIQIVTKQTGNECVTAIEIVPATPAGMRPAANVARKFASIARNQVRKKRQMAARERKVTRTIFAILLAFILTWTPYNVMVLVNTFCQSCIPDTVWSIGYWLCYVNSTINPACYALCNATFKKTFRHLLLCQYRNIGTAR

| Ki [nM] | Compound |
| --- | --- |
| 100 to 500 | C[C@@H]1CN(c2ncc(S(=O)(=O)C3CC3)cn2)CCN1C(=O)NC1CC2(C1)CN(Cc1ccccc1)C2 [Compound 8, (2R)-N-{2-benzyl-2-azaspiro[3.3]heptan-6-yl}-4-[5-(cyclopropanesulfonyl)pyrimidin-2-yl]-2-methylpiperazine-1-carboxamide] |
| 100 to 500 | C[C@@H]1CN(c2ncc(S(C)(=O)=O)cn2)CCN1C(=O)OC1CC2(C1)CN(Cc1ccccc1)C2 [Compound 13, 2-benzyl-2-azaspiro [3.3]heptan-6-yl (2R)-4-(5-methanesulfonyl-pyrimidin-2-yl)-2-methylpiperazine-1-carboxylate] |
| < 100 | C[C@@H]1CN(c2ncc(S(C)(=O)=O)cn2)C[C@H](C)N1C(=O)OC1CC2(C1)CN(Cc1ccccc1)C2 [Compound 33, 2-benzyl-2-azaspiro [3.3]heptan-6-yl (2R,6S)-4-(5-methane-sulfonylpyrimidin-2-yl)-2,6-dimethylpiperazine-1-carboxylate] |
| 100 to 500 | CCS(=O)(=O)c1cnc(N2CCN(C(=O)NC3CC4(C3)CN(Cc3ccccc3)C4)[C@H](C)C2)nc1 [Compound 7, (2R)-N-{2-benzyl-2-azaspiro[3.3]heptan-6-yl}-4-[5-(ethanesulfonyl)pyrimidin-2-yl]-2-methylpiperazine-1-carboxamide] |
| ≥ 500 | C[C@@H]1CN(c2ncc(OC3CC3)cn2)C[C@H](C)N1C(=O)OC1CC2(C1)CN(Cc1ccccc1)C2 [Compound 46, 2-benzyl-2-azaspiro [3.3]heptan-6-yl (2R,6S)-4-(5-cyclopropoxy-pyrimidin-2-yl)-2,6-dimethylpiperazine-1-carboxylate] |
| 100 to 500 | CCS(=O)(=O)c1cnc(N2C[C@@H](C)N(C(=O)OC3CC4(C3)CN(Cc3ccccc3)C4)[C@H](C)C2)nc1 [Compound 18, 2-benzyl-2-azaspiro [3.3]heptan-6-yl (2R,6R)-4-[5-(ethane-sulfonyl)pyrimidin-2-yl]-2,6-dimethylpiperazine-1-carboxylate] |
| < 100 | CC(C)S(=O)(=O)c1cnc(N2C[C@@H](C)N(C(=O)OC3CC4(C3)CN(Cc3ccccc3)C4)C[C@@H]2C)nc1 [Compound 26, 2-benzyl-2-azaspiro [3.3]heptan-6-yl (2R,5S)-2,5-dimethyl-4-[5-(propane-2-sulfonyl)pyrimidin-2-yl]piperazine-1-carboxylate] |
| 100 to 500 | C[C@@H]1CN(c2ncc(S(C)(=O)=O)cn2)[C@@H](C)CN1C(=O)NC1CC2(C1)CN(Cc1ccccc1)C2 [Compound 4, (2R,5S)-N-{2-benzyl-2-azaspiro[3.3]heptan-6-yl}-4-(5-methanesulfonyl-pyrimidin-2-yl)-2,5-dimethylpiperazine-1-carboxamide] |
| 100 to 500 | CC(C)S(=O)(=O)c1cnc(N2C[C@@H](C)N(C(=O)OC3CC4(C3)CN(Cc3ccccc3)C4)[C@@H](C)C2)nc1 [Compound 42, 2-benzyl-2-azaspiro [3.3]heptan-6-yl (2R,6S)-2,6-dimethyl-4-[5-(propane-2-sulfonyl)pyrimidin-2-yl]piperazine-1-carboxylate] |
| < 100 | C[C@@H]1CN(c2ncc(S(C)(=O)=O)cn2)C[C@H](C)N1C(=O)OC1CC2(C1)CN(Cc1ccc(Cl)cc1)C2 [Compound 36, 2-[(4-chlorophenyl)methyl]-2-azaspiro[3.3] heptan-6-yl (2R,6S)-4-(5-methanesulfonylpyrimidin-2-yl)-2,6-dimethyl-piperazine-1-carboxylate] |
| < 100 | CCS(=O)(=O)c1cnc(N2C[C@@H](C)N(C(=O)NC3CC4(C3)CN(Cc3ccccc3)C4)[C@@H](C)C2)nc1 [Compound 2, (2R,6S)-N-{2-benzyl-2-azaspiro[3.3]heptan-6-yl}-4-[5-(ethanesulfonyl)pyrimidin-2-yl]-2,6-dimethylpiperazine-1-carboxamide] |
| ≥ 500 | COc1ccccc1CN1CC2(CC(OC(=O)N3[C@H](C)CN(c4ncc(S(C)(=O)=O)cn4)C[C@@H]3C)C2)C1 [Compound 62, 2-[(2-methoxyphenyl)methyl]-2-azaspiro[3.3] heptan-6-yl (2R,6S)-4-(5-methanesulfonylpyrimidin-2-yl)-2,6-dimethyl-piperazine-1-carboxylate] |
| < 100 | C[C@@H]1CN(c2ncc(S(=O)(=O)C3CC3)cn2)CCN1C(=O)OC1CC2(C1)CN(Cc1ccccc1)C2 [Compound 22, 2-benzyl-2-azaspiro [3.3]heptan-6-yl (2R)-4-[5-(cyclopropanesulfonyl)pyrimidin-2-yl]-2-methylpiperazine-1-carboxylate] |
| < 100 | CCS(=O)(=O)c1cnc(N2CCN(C(=O)OC3CC4(C3)CN(Cc3ccccc3)C4)[C@H](C)C2)nc1 [Compound 21, 2-benzyl-2-azaspiro [3.3]heptan-6-yl (2R)-4-[5-(ethanesulfonyl)-pyrimidin-2-yl]-2-methylpiperazine-1-carboxylate] |

| Compound | Ki [nM] |
| --- | --- |
| CC[C@H](O)COc1cnc(N2C[C@@H](C)N(C(=O)OC3CC4(C3)CN(Cc3ccccc3)C4)[C@@H](C)C2)nc1 [Compound 57, 2-benzyl-2-azaspiro [3.3]heptan-6-yl (2R,6S)-4-{5-[(2S)-2-hydroxybutoxy]pyrimidin-2-yl}-2,6-dimethyl-piperazine-1-carboxylate] | 100 to 500 |
